Source: article doi:10.1101/2025.06.15.659787v1 (biorxiv, 2025)

Biological target: Mtb-SufS (Mycobacterium tuberculosis, UniProt P9WQ69)
Sequence (P9WQ69 whole entry): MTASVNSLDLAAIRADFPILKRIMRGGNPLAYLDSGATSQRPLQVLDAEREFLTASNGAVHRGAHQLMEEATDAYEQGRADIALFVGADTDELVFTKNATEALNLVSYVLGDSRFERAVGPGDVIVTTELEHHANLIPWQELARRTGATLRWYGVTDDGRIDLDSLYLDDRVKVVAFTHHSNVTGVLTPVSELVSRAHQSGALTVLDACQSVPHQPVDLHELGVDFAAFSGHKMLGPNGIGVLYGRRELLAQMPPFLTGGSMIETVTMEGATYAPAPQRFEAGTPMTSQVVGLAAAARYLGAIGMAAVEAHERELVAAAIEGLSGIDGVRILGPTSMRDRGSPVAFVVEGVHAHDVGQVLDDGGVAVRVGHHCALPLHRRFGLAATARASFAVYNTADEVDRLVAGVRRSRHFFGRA

SMILES: N[C@@H](CS)C(=O)O [L-Cys]
- GC-MS assay of L-Ala formation: Mtb-SufS shows low basal activity
